# Experimental data taken from patent publication US7507764B2 (Tego BioSciences Corporation, priority 2003, dated 2009).
# Entries after “also recorded” stand apart in the source; their conditions may differ.
# Test: Qualitative solubility in water and organic solvents
# Type: physicochemical
# Details: for solubility in methanol: compared to octadecadiynyl analogues 12 and 3; for solubility in organic solvents: organic solvents like CHCl3, CH2Cl2 (and DMF)
# From the text: Thus self-aggregation behavior of 3 has not been investigated. To increase the polar character and to improve the water-solubility of such a bis-biotinated derivative, the [5:1]-hexakisadduct 13 with five ethyl malonate addends instead of the five octadecadiynyl malonates was synthesized (FIG. 2). To overcome the general problem of separating the desired hexakisadducts from other adducts formed simultaneously upon the exhaustive cyclopropanation step the sequence of addition steps was reversed in this case. For this purpose the cherry-red C2v-symmetrical [5:0]-pentakisadduct 14^[14] was prepared and used as starting material. The subsequent cyclopropanation reaction with the Boc-protected spacer malonate 8 to complete the C2v-symmetrical octahedral addition pattern afforded the bright-yellow N-Boc-protected [5:1]-hexakisadduct 15 in 63% yield after FC and HPLC purification. After cleavage of the Boc-protecting groups with TFA/CH2Cl2 the bis-amino amphifullerene 16 was obtained in quantitative yield. […]
# The characterization of the protected dipeptide hexakisadduct precursors 45 and 46 as well as the free dipeptide hexakisadducts 47 and 48 succeeded by IR-, UV-, ^1H and ^13C NMR and by FAB mass spectroscopy.
# The synthesis of a series of mixed amphiphilic hexakisadducts of C60 with an octahedral addition pattern is now described. The new [5:1]-hexakisadduct 3 involving five non-polar long chain malonate addends and one polar addend with two biotin termini is insoluble in water. As a consequence it cannot be used for the investigation of superstructures in aqueous solution. However, it represents an attractive building block for a potential co-surfactant aided assembly to mixed micelles or liposomes. The spacer carrying the biotin termini was designed in a way that it can protrude through a layer of assembled lipid molecules such as DPPC. This in principle makes it available for targeting of micelles and liposomes via avidin mediated binding of label molecules. This is believed to be the first report of the synthesis of amphiphilic [3:3]-hexakisadducts of C60. The key for the very facile access to these aesthetically pleasing molecules is the easy synthesis of the e,e,e-trisadduct 18, which can be prepared in one step from the highly regioselective addition of cyclo-[3]-octylmalonate 17. The remaining three octahedral sites are available for the attachment of three ionic or neutral polar addends. As termini carboxy, amino and peptide moieties were used. This allows for the introduction of a tunable number of positive or negative charges within the polar groups by pH-variation. In a few cases preliminary investigations on the self-assembly using cryo-TEM and PGSE-NMR have been carried out. It has been shown that the solubility and self-assembly properties depend on the number of ionic charges and therefore on the pH value. These are very favourable opportunities for the controlled encapsulation and release of non-polar guest molecules making such amphiphilic fullerenes interesting candidates for drug delivery systems. Extensive investigations on the aggregation and inclusion properties of amphiphilic [3:3]-hexakisadducts of C60 are currently under way.
Substance,solubility in methanol,solubility in organic solvents,self-assembly in water,solubility in water
"1,2-{Bis-(14-[3-{2-(2-[Aminopropoxy]-ethoxy)-ethoxy}-propyl]carbamoyl-tetradecyloxycarbonyl)-methano}-18,36:22,23:27,45:31,32:55,60-pentakis-{ethyloxycarbonyl)-methano}-1,2:18,36:22,23:27,45:31,32:55,60-dihydro[60]fullerene [compound 16]",enhanced solubility,appreciable solubility,,
"1,2-{Bis-(14-[3-{2-(2-[N-Biotinyl-aminopropoxy]-ethoxy)-ethoxy}-propyl]-carbamoyltetradecyloxycarbonyl)-methano}-18,36:22,23:27,45:31,32:55,60-pentakis-{di(10,12-octadecadiynyloxycarbonyl)-methano}-1,2:18,36:22,23:27,45:31,32:55,60-dihydro[60]fullerene [compound 3]",,Acceptable solubility,inappropriate to form self-assemblies in water,only soluble in the presence of a co-solvent like methanol; also recorded: water-insoluble
"1,2-{Bis-(14-[3-{2-(2-[N-Biotinyl-aminopropoxy]ethoxy)-ethoxy}-propyl]-carbamoyl-tetradecyloxycarbonyl)-methano}-18,36:22,23:27,45:31,32:55,60-pentakis-{ethyloxycarbonyl)-methano}1,2:18,36:22,23:27,45:31,32:55,60-dihydro-[60]fullerene [compound 13]",enhanced solubility,appreciable solubility,inappropriate to form self-assemblies in water,water-insoluble
